# According to PubChem BioAssay AID2060893 (Molecular Pharmacology Branch, DTP, NCI, 2025):
# Test system: K86415-001-R-J1-PDC complex spheroids, viability
# Experiment: Anticancer human tumor K86415-001-R-J1-PDC patient-derived lung adenocarcinoma cell line growth inhibition [RAS]
# Conditions: for IC50: curve of first compound; for viability, T/C: stronger effect = lower value
# Procedure, shortened: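 Multi-cell-type spheroids: tumor cells plus HUVEC endothelial cells and mesenchymal stem cells. RAS-pathway inhibitors were combined with targeted agents, each dosed in half-log steps down from clinical Cmax, or from 10 microM when Cmax was unknown.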
# [1] = second compound 0.000949 µM, first compound 0.0316 µM
# [2] = second compound 0.000949 µM, first compound 0.1 µM
# [3] = second compound 0.000949 µM, first compound 0.316 µM
# [4] = second compound 0.000949 µM, first compound 1 µM
# [5] = second compound 0.003 µM, first compound 0.0316 µM
# [6] = second compound 0.003 µM, first compound 0.1 µM
# [7] = second compound 0.003 µM, first compound 0.316 µM
# [8] = second compound 0.003 µM, first compound 1 µM
# [9] = second compound 0.00949 µM, first compound 0.0316 µM
# [10] = second compound 0.00949 µM, first compound 0.1 µM
# [11] = second compound 0.00949 µM, first compound 0.316 µM
# [12] = second compound 0.00949 µM, first compound 1 µM
# [13] = second compound 0.03 µM, first compound 0.0316 µM
# [14] = second compound 0.03 µM, first compound 0.1 µM
# [15] = second compound 0.03 µM, first compound 0.316 µM
# [16] = second compound 0.03 µM, first compound 1 µM
# [17] = second compound 0.0949 µM, first compound 0.0316 µM
# [18] = second compound 0.0949 µM, first compound 0.1 µM
# [19] = second compound 0.0949 µM, first compound 0.316 µM
# [20] = second compound 0.0949 µM, first compound 1 µM
# [21] = second compound 0.3 µM, first compound 0.0316 µM
# [22] = second compound 0.3 µM, first compound 0.1 µM
# [23] = second compound 0.3 µM, first compound 0.316 µM
# [24] = second compound 0.3 µM, first compound 1 µM
# 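Note: spheroids exposed to agents for seven days before readout.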
structure (smiles),measurement,setting,value
CC1(O)CCCC1n1c(=O)c(C(F)F)cc2cnc(NC3CCN(S(C)(=O)=O)CC3)nc21 (centres undefined) + CCn1c(-c2cc(N3CCN(C)CC3)cnc2C(C)OC)c2c3cc(ccc31)-c1csc(n1)CC(NC(=O)C1CC1C)C(=O)N1CCCC(N1)C(=O)OCC(C)(C)C2,IC50,second compound 0.000949 µM,31.6 nM
same,IC50,second compound 0.003 µM,< 31.6 nM
same,IC50,second compound 0.00949 µM,< 31.6 nM
same,IC50,second compound 0.03 µM,< 31.6 nM
same,IC50,second compound 0.0949 µM,< 31.6 nM
same,IC50,second compound 0.3 µM,< 31.6 nM
same,"viability, T/C",[1],41.9%
same,"viability, T/C",[2],36.9%
same,"viability, T/C",[3],36.7%
same,"viability, T/C",[4],47%
same,"viability, T/C","second compound 0.000949 µM, first compound 3.16 µM",57.5%
same,"viability, T/C","second compound 0.000949 µM, first compound 10 µM",4.99%
same,"viability, T/C",[5],18.4%
same,"viability, T/C",[6],19.2%
same,"viability, T/C",[7],20%
same,"viability, T/C",[8],23.5%
same,"viability, T/C","second compound 0.003 µM, first compound 3.16 µM",43%
same,"viability, T/C","second compound 0.003 µM, first compound 10 µM",4.43%
same,"viability, T/C",[9],10.9%
same,"viability, T/C",[10],8.83%
same,"viability, T/C",[11],10.7%
same,"viability, T/C",[12],11.5%
same,"viability, T/C","second compound 0.00949 µM, first compound 3.16 µM",20.2%
same,"viability, T/C","second compound 0.00949 µM, first compound 10 µM",5.31%
same,"viability, T/C",[13],6.62%
same,"viability, T/C",[14],6.19%
same,"viability, T/C",[15],6.48%
same,"viability, T/C",[16],10.7%
same,"viability, T/C","second compound 0.03 µM, first compound 3.16 µM",12.3%
same,"viability, T/C","second compound 0.03 µM, first compound 10 µM",4.06%
same,"viability, T/C",[17],4.05%
same,"viability, T/C",[18],4.63%
same,"viability, T/C",[19],4.78%
same,"viability, T/C",[20],5.15%
same,"viability, T/C","second compound 0.0949 µM, first compound 3.16 µM",6.85%
same,"viability, T/C","second compound 0.0949 µM, first compound 10 µM",5.2%
same,"viability, T/C",[21],3.61%
same,"viability, T/C",[22],5.05%
same,"viability, T/C",[23],4.72%
same,"viability, T/C",[24],5.49%
same,"viability, T/C","second compound 0.3 µM, first compound 3.16 µM",7.45%
same,"viability, T/C","second compound 0.3 µM, first compound 10 µM",4.66%
CCN1CCN(Cc2ccc(Nc3ncc(F)c(-c4cc(F)c5nc(C)n(C(C)C)c5c4)n3)nc2)CC1 + CCn1c(-c2cc(N3CCN(C)CC3)cnc2C(C)OC)c2c3cc(ccc31)-c1csc(n1)CC(NC(=O)C1CC1C)C(=O)N1CCCC(N1)C(=O)OCC(C)(C)C2,IC50,second compound 0.000949 µM,< 3.16 nM
same,IC50,second compound 0.003 µM,< 3.16 nM
same,IC50,second compound 0.00949 µM,< 3.16 nM
same,IC50,second compound 0.03 µM,< 3.16 nM
same,IC50,second compound 0.0949 µM,< 3.16 nM
same,IC50,second compound 0.3 µM,< 3.16 nM
same,"viability, T/C","second compound 0.000949 µM, first compound 0.00316 µM",47.9%
same,"viability, T/C","second compound 0.000949 µM, first compound 0.01 µM",40.1%
same,"viability, T/C",[1],34.3%
same,"viability, T/C",[2],34.2%
same,"viability, T/C",[3],35.9%
same,"viability, T/C",[4],40.8%
same,"viability, T/C","second compound 0.003 µM, first compound 0.00316 µM",21.5%
same,"viability, T/C","second compound 0.003 µM, first compound 0.01 µM",17.4%
same,"viability, T/C",[5],17.5%
same,"viability, T/C",[6],19.1%
same,"viability, T/C",[7],26.6%
same,"viability, T/C",[8],23.5%
same,"viability, T/C","second compound 0.00949 µM, first compound 0.00316 µM",12.5%
same,"viability, T/C","second compound 0.00949 µM, first compound 0.01 µM",10.9%
same,"viability, T/C",[9],10.3%
same,"viability, T/C",[10],11.9%
same,"viability, T/C",[11],10.6%
same,"viability, T/C",[12],8.22%
same,"viability, T/C","second compound 0.03 µM, first compound 0.00316 µM",5.68%
same,"viability, T/C","second compound 0.03 µM, first compound 0.01 µM",6.29%
same,"viability, T/C",[13],3.09%
same,"viability, T/C",[14],5.81%
same,"viability, T/C",[15],4.33%
same,"viability, T/C",[16],3.19%
same,"viability, T/C","second compound 0.0949 µM, first compound 0.00316 µM",3.17%
same,"viability, T/C","second compound 0.0949 µM, first compound 0.01 µM",3.79%
same,"viability, T/C",[17],3.86%
same,"viability, T/C",[18],3.09%
same,"viability, T/C",[19],2.31%
same,"viability, T/C",[20],1.64%
same,"viability, T/C","second compound 0.3 µM, first compound 0.00316 µM",2.92%
same,"viability, T/C","second compound 0.3 µM, first compound 0.01 µM",3.03%
same,"viability, T/C",[21],2.27%
same,"viability, T/C",[22],1.73%
same,"viability, T/C",[23],1.63%
same,"viability, T/C",[24],1.66%
